Measurements taken from paper PMC12406664, “New derivatives of 6-nitrocoumarin-3-thiosemicarbazone exhibit improved antiparasitic activity in the placenta against Trypanosoma cruzi and Toxoplasma gondii” (Antimicrobial Agents and Chemotherapy, 2025).
Like-named read-outs stand apart in the source and are kept apart here.

How the values were obtained:
[1] = test system: T. cruzi trypomastigotes, Dm28 strain; assay: Resazurin viability assay on free T. cruzi trypomastigotes
Protocol: The reduction of resazurin sodium salt was used to determine the trypanocidal and toxoplasmicidal activity of the 6-nitrocoumarin-thiosemicarbazone hybrids 1–8. For this, treatment with the compounds was carried out for 24 h at a concentration of 100 µM.
NFX was used as a positive control for T. cruzi, and PMN was used for T. gondii. Untreated parasites served as a negative control. […] Subsequently, parasites with their respective conditions were transferred to a 96-well white fluorescence reading plate, adding resazurin at a final concentration of […] with 0.8 mM phenazine. The plate was incubated for 3 hours at 37°C in a humidified atmosphere with 5% CO2, and fluorescence measurements were taken using a microplate reader (Thermo Scientific Varioskan Flash) at excitation wavelengths of 560 nm and emission wavelengths of 590 nm.

[2] = test system: T. gondii tachyzoites, RH strain; assay: Resazurin viability assay on free T. gondii tachyzoites; type: cell-based, Toxoplasma gondii; settings: Toxoplasma gondii; tachyzoites RH; 100 µM; 24 h
Description: Untreated parasites served as a negative control.

[3] = test system: intracellular amastigotes of T. cruzi (Tulahuen β-gal); assay: Intracellular amastigotes, β-galactosidase-expressing T. cruzi in LLC-MK2 cells (CPRG); type: cell-based, Trypanosoma cruzi; settings: 72 h
Protocol: The effect of the compounds over intracellular amastigotes of a β-galactosidase-expressing recombinant strain of T. cruzi (Tulahuen β-gal) was also evaluated (see Table S4 at https://doi.org/10.5281/zenodo.15694236). […] Similarly, intracellular anti-T. gondii tachyzoite was assessed using quantitative immunocytochemistry targeting the parasite’s P30 protein (see Table S4 at https://doi.org/10.5281/zenodo.15694236). […] The complete absence of activity of hydroxylated compounds against intracellular forms of both parasites was confirmed, which could be attributed to their inability to permeate mammalian cell membranes.
LLC-MK2 cells (2 × 10^4/well), suspended in 200 µL DMEM with 10% FBSi and 1% antibiotics (penicillin-streptomycin), were placed in each well of a 96-well plate and incubated for 24 hours. Subsequently, the culture medium was removed, and cell monolayers were infected by placing five trypomastigotes per cell in 200 µL of DMEM 2 for 24 hours under the same incubation conditions. After infection, the culture medium was removed, and cells were washed 4 times with 1× sterile PBS. Finally, 10 twofold serial dilutions (200 µM to 0.39 µM concentration range) of each compound, in DMEM 2 without phenol red, were placed in duplicate wells in a 96-well plate and incubated for 72 hours. […] Absorbance at 600 nm was read 4 hours later, in a multimodal GloMax microplate reader (Promega).

[4] = Lipophilicity by reversed-phase TLC (RM); settings: reverse phase-C18, DMSO/phosphate buffer pH 7.4 (70:30 vol/vol), RM = log[(1/Rf) – 1]
Protocol: Lipophilicity was studied by reversed-phase TLC experiments. Precoated TLC plates SIL RP-18W/UV254 were used and eluted with DMSO/physiological serum (70:30, vol/vol). Stock solutions were prepared in pure DMSO (Aldrich) prior to use. The plates were developed in a closed chromatographic tank, dried, and the spots were located under UV light. The Rf values were averaged from three determinations and converted into RM values via the relationship: RM = log [(1/Rf)−1]

[5] = Cyclic voltammetry, reduction potentials in DMSO (HDME, vs. Ag/AgCl); settings: 2.00 V/s
Protocol: Electrochemical studies were carried out on a Metrohm Autolab instrument model PGSTAT204, using dimethyl sulfoxide (DMSO) as the solvent (1 mM solutions), tetrabutylammonium perchlorate (0.1 M TBAP) as the supporting electrolyte, a hanging drop mercury electrode (HDME) as the working electrode, Ag/AgCl (3M KCl) as the reference electrode and a graphite rod as the counter electrode. All measurements were performed after bubbling with nitrogen (N2) for 10 minutes.

[6] = Cytotoxicity on cells (resazurin), EA.hy926; type: cell-based; settings: human, EA.hy926 endothelial cells
Description: (§1) Triton X-100 was used as a positive control, and untreated cells served as a negative control. In addition, the maximum concentration of DMSO was used as a control for the method. […] The obtained values were expressed as IC50([88]).

[7] = Cytotoxicity on cells (resazurin), BeWo; type: cell-based; settings: human, BeWo trophoblast cells
Description: as §1

[8] = test system: T. cruzi (Dm28 strain) in BeWo cells; assay: Infection of BeWo cells by T. cruzi, infected cells counted by fluorescence microscopy; type: cell-based, Trypanosoma cruzi; settings: compound at IC50, untreated control 24 ± 3
Protocol: The effect of the compounds on the infection of BeWo trophoblast cells by T. gondii and T. cruzi was assessed. The DNA of T. gondii and T. cruzi was quantified in infected BeWo cells treated for 24 hours under two conditions: co-incubation and post-infection treatment. […] Fluorescence microscopy was employed to quantify the number of infected cells. The resulting images were analyzed using ImageJ software to count both infected and uninfected cells.
For the microscopic analysis of BeWo cells infected with T. cruzi, the cells were washed with PBS to remove the supernatant, fixed with 90% cold methanol, rewashed with PBS, and incubated for 5 minutes with 1 µg/mL—1 4,6-diamidino-2-phenylindole (DAPI) (Molecular Probes). To analyze BeWo cells infected with T. gondii, cells were fixed with 90% cold methanol, washed with PBS containing 0.05% Tween, and blocked using 3% BSA for 1 hour at 37°C. Then, they were incubated with the primary monoclonal antibody Toxoplasma gondii (TP3): sc-52255 at a dilution of 1:500 with 1% BSA overnight at 4°C. […] T. cruzi amastigotes were identified by their morphology, including nuclear size and the presence of a kinetoplast, and were analyzed and quantified using ImageJ. At least 500 cells per condition were analyzed, and infected and non-infected cells were counted for every 100 cells ([35], [70]). […]

[9] = test system: T. cruzi (Dm28 strain) in HPE; assay: T. cruzi DNA load in infected human placental explants (HPE) by real-time qPCR; type: cell-based, Trypanosoma cruzi; settings: IC50 concentration
Description: Cells or HPE were exposed to parasites. […] The following treatment conditions were used in both infection models.

[10] = test system: HPE exposed to T. cruzi trypomastigotes; assay: Histopathology of HPE infected with T. cruzi; type: cell-based, human; settings: co-incubation, IC50 concentration
[11] = test system: human placental explants (HPE); assay: Histopathology of uninfected HPE exposed to the compounds alone; settings: explants incubated only with the compound, 24 h, IC50 concentration
Protocol: The HPE was fixed in 10% formaldehyde in 0.1 M phosphate buffer (pH 7.3) for 24 h, dehydrated in alcohol, clarified in xylene, embedded in paraffin, and sectioned at 3 µm. Paraffin histological sections were stained with hematoxylin-eosin for routine histological analysis, Picro Sirius red, and trichromic Masson for collagen histochemistry. Sections for the histological analysis were observed under an optical microscope (Leica DM500) and images were captured with a Leica ICC50 W camera ([7], [91]).

[12] = vs. Ag/AgCl; cited from earlier work
[13] = test system: T. cruzi trypomastigotes, Dm28 strain; settings: read-out: IC50 T. cruzi; cited from earlier work
[14] = test system: T. gondii tachyzoites (strain RH); assay: Intracellular ROS generation (DCF probe) in T. gondii; type: cell-based, Toxoplasma gondii; settings: compound at IC50, menadione 20 µM, 40 minutes, vs untreated control
Protocol: ROS detection was performed using the 2′,7′-dichlorodihydrofluorescein diacetate (DCFH2-DA) method ([45]). For the assay, Dm28c trypomastigotes and tachyzoites were seeded in 96-well plates at a density of 10⁶ parasites/mL. In contrast, BeWo cells were seeded at 5 × 10⁴ cells per well, using the previously described culture medium.
After incubation with 20 µM DCFH2-DA for 15 minutes at 37°C, the parasites were centrifuged at 3,500 × g, washed twice with PBS (pH 7.4), and subsequently transferred to Nunc 96-well fluorescence plates. Meanwhile, after 24 hours of incubation at 37°C and 5% CO₂, the culture medium of BeWo cells was replaced, and 20 µM DCFH2-DA solution was added, followed by a 15 minute incubation at 37°C. The cells were then washed with PBS at pH 7.4. As a positive control, 20 µM menadione was used, while the negative control consisted of culture medium without compounds.
Over time, the area under the fluorescence increase curve was determined using Origin 8 software (version 9.2), with normalization relative to the control. The results correspond to three independent experiments' mean ± standard deviation (SD).

[15] = test system: T. cruzi trypomastigotes (strain Dm28); assay: ESR spin trapping with DMPO in T. cruzi; type: cell-based, Trypanosoma cruzi; settings: compound about 1 mM, menadione 20 µM
Protocol: (§2) Each tested hybrid was dissolved in spectroscopy-grade DMSO at an approximate concentration of 1 mM and added to a mixture containing Trypanosoma cruzi (Dm28c strain) or Toxoplasma gondii at a density of 50 × 10⁶ trypomastigotes or tachyzoites per mL, along with DMPO at a final concentration of 250 mM. Menadione (20 µM) was used as a positive control.
(§3) All spectra were acquired on the same scale after 15 scans.

[16] = test system: T. gondii tachyzoites (strain RH); assay: ESR spin trapping with DMPO in T. gondii; type: cell-based, Toxoplasma gondii; settings: compound about 1 mM, menadione 20 µM
Protocol: as §2, §3

## C/C(=N\NC(=S)Nc1ccccc1)c1cc2cc([N+](=O)[O-])ccc2oc1=O [Compound 8, (E)−2-(1-(6-nitro-2-oxo-2H-chromen-3-yl)ethylidene)-N-phenylhydrazine-1-carbothioamide]
[1]; Trypanosoma cruzi, 24 h, read-out: Viability T. cruzi (%)
  viability at 100 µM: 45.2 ± 6.7%
[2]
  viability at 100 µM: 86.2 ± 14.4%
[3]
  activity over intracellular amastigotes: most active
[4]
  Lipophilicity (RM): 0.20
[5]; anodic peak IIa
  E(pIIa): −0.86 V
[5]; cathodic peak IIIc, hydroxylamine formation
  E(pIIIc): −1.39 V
[5]; cathodic peak IIc, nitro anion radical couple
  E(pIIc): −0.94 V
[5]; cathodic peak IVc, imine reduction
  E(pIVc): −1.68 V

## CC1CS(=O)(=O)CCN1/N=C/c1ccc([N+](=O)[O-])o1 (stereo not drawn) [NFX, nifurtimox, reference compound]
[1]; parasite T. cruzi
  SI = BeWo CC50/parasite IC50: >30
  SI = EA.hy926 CC50/parasite IC50: 34.9
[6]
  CC50 at 24 h: 348.5 ± 1.2 µM
[7]
  CC50 at 24 h: > 300 µM
[8]; co-incubation 24 h
  Infected cells (%): 2 ± 1%
[8]; post-infection treatment 24 h
  Infected cells (%): 23 ± 4%
[9]; co-incubation
  effect on parasite DNA load: managed to reduce the parasitic load
[9]; post-infection treatment
  effect on parasite DNA load: no statistically significant activity
[10]
  tissue damage in infected HPE (histopathology): caused tissue damage
[11]
  tissue damage caused by the compound itself in HPE: caused tissue damage
[12]
  E(pIIa): −0.70 V
  E(pIIc): −0.75 V
[13]
  IC50: 10 ± 0.4 µM

## CC1=CC(=O)c2ccccc2C1=O [menadione, reference compound]
[14]
  ROS generation (DCF fluorescence): significant increase in ROS production
[15]
  radical species detected by ESR spin trapping (DMPO): triplet (aN ~15.5 G) corresponding to a DMPO-derived oxidized paramagnetic compound
[16]
  radical species detected by ESR spin trapping (DMPO): formation of multiple signals
